One block for each molecule: values may come before it.
Key:
Experiment in all cases: radiometric filter-binding kinase assay
[1] = target: MAP3K1 (human) (UniProt Q13233)
[2] = target: EEF2K (human) (UniProt O00418)
[3] = target: AURKA (human) (UniProt O14965)
[4] = target: MAPK9 (human) (UniProt P45984)
[5] = target: BTK (human) (UniProt Q06187)
[6] = target: ERBB4 (human) (UniProt Q15303)
[7] = target: BRSK2 (human) (UniProt Q8IWQ3)
[8] = target: MAPK8 (human) (UniProt P45983)
[9] = target: EPHA4 (human) (UniProt P54764)
[10] = target: TBK1 (human) (UniProt Q9UHD2)
[11] = target: RPS6KA3 KD1 KD2 (human) (UniProt P51812)
[12] = target: MAPK3 (human) (UniProt P27361)
[13] = target: CSK (human) (UniProt P41240)
[14] = system: PAK2 (human), Q13177 [T402E]
[15] = target: MKNK2 (human) (UniProt Q9HBH9)
[16] = system: AKT1 (human), P31749 [S473D]
[17] = target: HIPK1 (human) (UniProt Q86Z02)
[18] = target: MAPK15 (human) (UniProt Q8TD08)
[19] = target: MAPK1 (human) (UniProt P28482)
[20] = target: GSK3B (human) (UniProt P49841)
[21] = target: MAP2K2 (human) (UniProt P36507)
[22] = target: PAK7 (human) (UniProt Q9P286)
[23] = target: MAP2K6 (human) (UniProt P52564)
[24] = target: MAPKAPK3 (human) (UniProt Q16644)
[25] = target: STK11 CAB39 STRADA (human) (UniProt Q9Y376+Q7RTN6+Q15831)
[26] = target: RPS6KA5 KD1 KD2 (human) (UniProt O75582)
[27] = target: MAP3K5 (human) (UniProt Q99683)
[28] = target: PLK1 (human) (UniProt P53350)
[29] = target: SRPK1 (human) (UniProt Q96SB4)
[30] = target: NEK6 (human) (UniProt Q9HC98)
[31] = target: HIPK3 (human) (UniProt Q9H422)
[32] = target: CSNK1D (human) (UniProt P48730)
[33] = target: BRSK1 (human) (UniProt Q8TDC3)
[34] = target: IKBKB (human) (UniProt O14920)
[35] = target: FGFR1 (human) (UniProt P11362)

Sequence of MAPK1 (human) (P28482 whole entry, looked up): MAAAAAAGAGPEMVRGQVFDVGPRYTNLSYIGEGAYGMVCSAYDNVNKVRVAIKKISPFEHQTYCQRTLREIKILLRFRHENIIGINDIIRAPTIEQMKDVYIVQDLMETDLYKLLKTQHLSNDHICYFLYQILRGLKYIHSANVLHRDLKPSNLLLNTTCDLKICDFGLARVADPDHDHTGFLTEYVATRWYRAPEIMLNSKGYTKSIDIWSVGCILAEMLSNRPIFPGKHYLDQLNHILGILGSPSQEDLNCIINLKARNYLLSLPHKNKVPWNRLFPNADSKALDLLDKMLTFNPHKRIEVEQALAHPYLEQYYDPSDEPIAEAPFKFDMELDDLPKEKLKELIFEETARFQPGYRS
Sequence of TBK1 (human) (Q9UHD2 whole entry, looked up): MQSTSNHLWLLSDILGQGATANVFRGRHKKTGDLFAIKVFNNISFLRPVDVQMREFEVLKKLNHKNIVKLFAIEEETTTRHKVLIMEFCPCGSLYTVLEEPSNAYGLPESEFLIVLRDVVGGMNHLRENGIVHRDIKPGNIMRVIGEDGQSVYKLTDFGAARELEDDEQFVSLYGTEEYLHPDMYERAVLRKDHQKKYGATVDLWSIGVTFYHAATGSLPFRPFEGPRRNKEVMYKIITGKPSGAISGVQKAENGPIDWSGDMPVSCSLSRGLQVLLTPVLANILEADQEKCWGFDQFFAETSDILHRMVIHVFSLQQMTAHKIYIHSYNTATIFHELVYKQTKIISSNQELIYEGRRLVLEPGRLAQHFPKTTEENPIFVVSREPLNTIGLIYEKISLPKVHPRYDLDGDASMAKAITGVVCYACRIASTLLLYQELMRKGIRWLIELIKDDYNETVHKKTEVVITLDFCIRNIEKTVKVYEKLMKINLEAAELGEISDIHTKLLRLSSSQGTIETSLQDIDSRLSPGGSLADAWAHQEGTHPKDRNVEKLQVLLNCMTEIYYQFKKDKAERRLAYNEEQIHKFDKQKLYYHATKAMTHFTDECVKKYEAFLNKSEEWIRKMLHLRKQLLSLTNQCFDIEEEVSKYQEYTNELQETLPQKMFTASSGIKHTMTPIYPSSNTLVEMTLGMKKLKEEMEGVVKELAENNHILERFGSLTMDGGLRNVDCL
Sequence of MAP3K5 (human) (Q99683 whole entry, looked up): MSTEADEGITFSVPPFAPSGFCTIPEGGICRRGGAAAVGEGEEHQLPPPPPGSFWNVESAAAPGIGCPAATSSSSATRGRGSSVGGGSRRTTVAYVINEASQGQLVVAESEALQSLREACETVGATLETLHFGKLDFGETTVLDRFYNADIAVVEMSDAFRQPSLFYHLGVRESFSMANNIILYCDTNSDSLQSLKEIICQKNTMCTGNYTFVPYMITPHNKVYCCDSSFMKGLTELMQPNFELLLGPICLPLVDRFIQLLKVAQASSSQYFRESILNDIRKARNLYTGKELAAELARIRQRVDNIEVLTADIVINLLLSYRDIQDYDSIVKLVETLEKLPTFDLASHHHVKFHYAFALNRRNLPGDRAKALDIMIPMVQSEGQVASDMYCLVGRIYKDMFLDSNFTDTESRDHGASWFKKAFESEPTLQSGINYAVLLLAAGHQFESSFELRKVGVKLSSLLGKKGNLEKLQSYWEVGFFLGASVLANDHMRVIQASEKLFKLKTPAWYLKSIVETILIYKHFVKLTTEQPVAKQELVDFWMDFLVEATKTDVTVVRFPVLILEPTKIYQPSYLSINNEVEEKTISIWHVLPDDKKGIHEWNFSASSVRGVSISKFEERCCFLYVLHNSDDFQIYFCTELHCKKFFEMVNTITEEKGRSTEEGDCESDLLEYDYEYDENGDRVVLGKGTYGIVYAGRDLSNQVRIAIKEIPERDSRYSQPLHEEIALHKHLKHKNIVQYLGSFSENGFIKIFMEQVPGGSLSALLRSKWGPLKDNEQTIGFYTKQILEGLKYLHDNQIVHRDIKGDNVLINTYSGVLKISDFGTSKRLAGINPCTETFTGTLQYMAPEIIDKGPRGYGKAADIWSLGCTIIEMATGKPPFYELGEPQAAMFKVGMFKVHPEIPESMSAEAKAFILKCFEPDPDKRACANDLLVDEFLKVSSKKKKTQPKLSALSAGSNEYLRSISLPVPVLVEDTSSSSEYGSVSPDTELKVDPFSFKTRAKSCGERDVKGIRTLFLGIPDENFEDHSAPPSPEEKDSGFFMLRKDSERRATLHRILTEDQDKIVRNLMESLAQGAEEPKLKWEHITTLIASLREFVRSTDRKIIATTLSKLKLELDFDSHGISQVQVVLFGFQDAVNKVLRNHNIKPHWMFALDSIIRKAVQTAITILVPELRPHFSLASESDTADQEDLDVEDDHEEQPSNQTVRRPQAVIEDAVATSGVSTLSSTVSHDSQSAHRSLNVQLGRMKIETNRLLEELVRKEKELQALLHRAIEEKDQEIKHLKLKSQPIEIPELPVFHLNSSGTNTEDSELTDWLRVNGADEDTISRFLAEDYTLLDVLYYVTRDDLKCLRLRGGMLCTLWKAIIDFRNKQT
Sequence of IKBKB (human) (O14920 whole entry, looked up): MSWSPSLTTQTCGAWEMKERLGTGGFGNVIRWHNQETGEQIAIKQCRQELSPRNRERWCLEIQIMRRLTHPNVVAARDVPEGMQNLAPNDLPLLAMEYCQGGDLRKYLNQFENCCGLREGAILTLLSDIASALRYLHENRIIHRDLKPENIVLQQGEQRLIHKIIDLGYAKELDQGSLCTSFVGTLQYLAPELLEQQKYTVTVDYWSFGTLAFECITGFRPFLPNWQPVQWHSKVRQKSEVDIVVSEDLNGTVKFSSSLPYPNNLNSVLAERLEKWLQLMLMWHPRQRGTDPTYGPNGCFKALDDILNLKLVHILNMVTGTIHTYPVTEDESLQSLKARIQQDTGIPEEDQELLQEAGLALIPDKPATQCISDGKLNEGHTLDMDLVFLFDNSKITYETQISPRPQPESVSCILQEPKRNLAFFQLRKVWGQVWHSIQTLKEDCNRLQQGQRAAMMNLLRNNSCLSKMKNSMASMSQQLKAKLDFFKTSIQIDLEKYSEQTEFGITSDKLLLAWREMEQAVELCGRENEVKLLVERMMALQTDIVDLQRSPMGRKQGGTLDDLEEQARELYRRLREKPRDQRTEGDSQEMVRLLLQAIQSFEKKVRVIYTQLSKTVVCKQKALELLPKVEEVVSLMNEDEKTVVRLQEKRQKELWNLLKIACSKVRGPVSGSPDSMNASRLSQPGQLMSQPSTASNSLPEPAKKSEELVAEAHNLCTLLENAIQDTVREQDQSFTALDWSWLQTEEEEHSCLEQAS
Sequence of SRPK1 (human) (Q96SB4 whole entry, looked up): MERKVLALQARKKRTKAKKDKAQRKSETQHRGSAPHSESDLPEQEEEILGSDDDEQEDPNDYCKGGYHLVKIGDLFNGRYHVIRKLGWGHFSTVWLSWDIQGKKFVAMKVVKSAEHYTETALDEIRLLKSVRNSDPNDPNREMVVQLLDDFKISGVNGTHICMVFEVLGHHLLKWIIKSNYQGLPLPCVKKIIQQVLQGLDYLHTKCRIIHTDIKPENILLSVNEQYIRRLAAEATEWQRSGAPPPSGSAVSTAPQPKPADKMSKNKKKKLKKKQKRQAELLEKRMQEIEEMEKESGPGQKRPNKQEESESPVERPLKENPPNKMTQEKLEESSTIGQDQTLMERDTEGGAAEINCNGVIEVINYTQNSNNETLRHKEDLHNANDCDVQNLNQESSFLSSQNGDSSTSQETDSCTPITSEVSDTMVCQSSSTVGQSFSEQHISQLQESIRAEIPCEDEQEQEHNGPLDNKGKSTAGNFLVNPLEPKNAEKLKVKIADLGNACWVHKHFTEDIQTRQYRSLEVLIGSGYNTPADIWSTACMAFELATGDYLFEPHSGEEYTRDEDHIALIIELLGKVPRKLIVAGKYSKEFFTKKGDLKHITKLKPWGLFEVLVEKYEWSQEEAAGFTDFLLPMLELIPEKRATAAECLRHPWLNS
Sequence of MKNK2 (human) (Q9HBH9 whole entry, looked up): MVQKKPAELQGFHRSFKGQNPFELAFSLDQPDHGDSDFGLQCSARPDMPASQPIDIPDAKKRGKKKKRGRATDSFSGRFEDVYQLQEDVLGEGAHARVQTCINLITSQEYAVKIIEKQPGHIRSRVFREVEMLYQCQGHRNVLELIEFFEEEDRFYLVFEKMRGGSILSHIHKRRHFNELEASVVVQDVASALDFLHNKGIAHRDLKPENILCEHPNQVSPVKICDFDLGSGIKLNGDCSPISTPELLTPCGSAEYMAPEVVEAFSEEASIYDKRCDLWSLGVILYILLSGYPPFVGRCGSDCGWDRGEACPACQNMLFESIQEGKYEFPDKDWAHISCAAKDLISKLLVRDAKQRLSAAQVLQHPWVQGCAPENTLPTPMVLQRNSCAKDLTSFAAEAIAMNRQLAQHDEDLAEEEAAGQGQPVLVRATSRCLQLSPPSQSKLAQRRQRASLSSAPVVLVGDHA
Sequence of BTK (human) (Q06187 whole entry, looked up): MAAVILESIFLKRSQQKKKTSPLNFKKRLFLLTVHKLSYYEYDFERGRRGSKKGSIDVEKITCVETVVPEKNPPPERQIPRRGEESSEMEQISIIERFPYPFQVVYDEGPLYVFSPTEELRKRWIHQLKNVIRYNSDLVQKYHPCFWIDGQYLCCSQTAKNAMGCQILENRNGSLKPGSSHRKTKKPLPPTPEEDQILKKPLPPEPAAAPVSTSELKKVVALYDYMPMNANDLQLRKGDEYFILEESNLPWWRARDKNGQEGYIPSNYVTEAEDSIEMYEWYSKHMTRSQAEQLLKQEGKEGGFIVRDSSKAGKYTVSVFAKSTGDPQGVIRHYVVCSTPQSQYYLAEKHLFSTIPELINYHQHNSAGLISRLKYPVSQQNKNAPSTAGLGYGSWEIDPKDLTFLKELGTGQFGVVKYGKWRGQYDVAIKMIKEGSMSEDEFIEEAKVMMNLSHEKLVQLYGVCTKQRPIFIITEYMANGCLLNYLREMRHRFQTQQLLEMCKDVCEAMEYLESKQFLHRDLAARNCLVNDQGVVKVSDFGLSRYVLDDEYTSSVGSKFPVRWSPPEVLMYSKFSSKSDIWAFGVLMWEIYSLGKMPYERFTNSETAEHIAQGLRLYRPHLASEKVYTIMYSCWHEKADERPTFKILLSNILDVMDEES

- residual activity ([1]; compound 1.0 µM): 88%
- residual activity ([1]; compound 10.0 µM): 93%
- residual activity ([2]; compound 1.0 µM): 84%
- residual activity ([2]; compound 10.0 µM): 92%
- residual activity ([3]; compound 1.0 µM): 103%
- residual activity ([3]; compound 10.0 µM): 104%
- residual activity ([4]; compound 1.0 µM): 88%
- residual activity ([4]; compound 10.0 µM): 92%
- residual activity ([5]; compound 1.0 µM): 102%
- residual activity ([5]; compound 10.0 µM): 97%
- residual activity ([6]; compound 1.0 µM): 86%
- residual activity ([6]; compound 10.0 µM): 82%
- residual activity ([7]; compound 1.0 µM): 108%
- residual activity ([7]; compound 10.0 µM): 105%
- residual activity ([8]; compound 1.0 µM): 87%
- residual activity ([8]; compound 10.0 µM): 93%
- residual activity ([9]; compound 1.0 µM): 97%
- residual activity ([9]; compound 10.0 µM): 100%
- residual activity ([10]; compound 1.0 µM): 111%
- residual activity ([10]; compound 10.0 µM): 99%
- residual activity ([11]; compound 1.0 µM): 98%
- residual activity ([11]; compound 10.0 µM): 89%
- residual activity ([12]; compound 1.0 µM): 100%
- residual activity ([12]; compound 10.0 µM): 101%
- residual activity ([13]; compound 1.0 µM): 89%
- residual activity ([13]; compound 10.0 µM): 88%
- residual activity ([14]; compound 1.0 µM): 95%
- residual activity ([14]; compound 10.0 µM): 80%
- residual activity ([15]; compound 1.0 µM): 89%
- residual activity ([15]; compound 10.0 µM): 90%
- residual activity ([16]; compound 10.0 µM): 99%
- residual activity ([17]; compound 1.0 µM): 96%
- residual activity ([17]; compound 10.0 µM): 85%
- residual activity ([19]; compound 1.0 µM): 83%
- residual activity ([19]; compound 10.0 µM): 79%
- residual activity ([20]; compound 1.0 µM): 89%
- residual activity ([20]; compound 10.0 µM): 89%
- residual activity ([21]; compound 1.0 µM): 55%
- residual activity ([21]; compound 10.0 µM): 23%
- residual activity ([22]; compound 1.0 µM): 102%
- residual activity ([22]; compound 10.0 µM): 86%
- residual activity ([23]; compound 1.0 µM): 90%
- residual activity ([23]; compound 10.0 µM): 67%
- residual activity ([24]; compound 1.0 µM): 94%
- residual activity ([24]; compound 10.0 µM): 77%
- residual activity ([25]; compound 1.0 µM): 80%
- residual activity ([25]; compound 10.0 µM): 77%
- residual activity ([26]; compound 1.0 µM): 98%
- residual activity ([26]; compound 10.0 µM): 96%
- residual activity ([27]; compound 1.0 µM): 102%
- residual activity ([27]; compound 10.0 µM): 112%
- residual activity ([28]; compound 1.0 µM): 97%
- residual activity ([28]; compound 10.0 µM): 93%
- residual activity ([29]; compound 1.0 µM): 95%
- residual activity ([29]; compound 10.0 µM): 86%
- residual activity ([30]; compound 1.0 µM): 101%
- residual activity ([30]; compound 10.0 µM): 103%
- residual activity ([31]; compound 1.0 µM): 90%
- residual activity ([31]; compound 10.0 µM): 101%
- residual activity ([32]; compound 1.0 µM): 96%
- residual activity ([32]; compound 10.0 µM): 97%
- residual activity ([33]; compound 1.0 µM): 98%
- residual activity ([33]; compound 10.0 µM): 101%
- residual activity ([34]; compound 1.0 µM): 78%
- residual activity ([34]; compound 10.0 µM): 89%
Structure (SMILES): O=C(NOCC(O)CO)c1ccc(F)c(F)c1Nc1ccc(I)cc1Cl (stereo not given)
- residual activity ([18]; compound 1.0 µM): 95%
- residual activity ([18]; compound 10.0 µM): 98%

- residual activity ([1]; compound 1.0 µM): 69%
- residual activity ([1]; compound 10.0 µM): 85%
- residual activity ([2]; compound 1.0 µM): 99%
- residual activity ([2]; compound 10.0 µM): 109%
- residual activity ([3]; compound 1.0 µM): 101%
- residual activity ([3]; compound 10.0 µM): 108%
- residual activity ([4]; compound 10.0 µM): 97%
- residual activity ([6]; compound 1.0 µM): 110%
- residual activity ([6]; compound 10.0 µM): 97%
- residual activity ([7]; compound 1.0 µM): 89%
- residual activity ([7]; compound 10.0 µM): 100%
- residual activity ([8]; compound 1.0 µM): 106%
- residual activity ([8]; compound 10.0 µM): 109%
- residual activity ([9]; compound 1.0 µM): 89%
- residual activity ([9]; compound 10.0 µM): 89%
- residual activity ([35]; compound 1.0 µM): 98%
- residual activity ([35]; compound 10.0 µM): 93%
- residual activity ([10]; compound 1.0 µM): 83%
- residual activity ([10]; compound 10.0 µM): 96%
- residual activity ([11]; compound 1.0 µM): 89%
- residual activity ([11]; compound 10.0 µM): 100%
- residual activity ([12]; compound 1.0 µM): 85%
- residual activity ([12]; compound 10.0 µM): 83%
- residual activity ([13]; compound 1.0 µM): 75%
- residual activity ([13]; compound 10.0 µM): 89%
- residual activity ([14]; compound 1.0 µM): 95%
- residual activity ([14]; compound 10.0 µM): 107%
- residual activity ([15]; compound 1.0 µM): 94%
- residual activity ([15]; compound 10.0 µM): 99%
- residual activity ([16]; compound 1.0 µM): 102%
- residual activity ([16]; compound 10.0 µM): 117%
- residual activity ([17]; compound 1.0 µM): 94%
- residual activity ([17]; compound 10.0 µM): 97%
- residual activity ([19]; compound 1.0 µM): 83%
- residual activity ([19]; compound 10.0 µM): 95%
- residual activity ([20]; compound 1.0 µM): 74%
- residual activity ([20]; compound 10.0 µM): 89%
- residual activity ([21]; compound 1.0 µM): 87%
- residual activity ([21]; compound 10.0 µM): 75%
- residual activity ([22]; compound 1.0 µM): 99%
- residual activity ([22]; compound 10.0 µM): 80%
- residual activity ([23]; compound 1.0 µM): 101%
- residual activity ([23]; compound 10.0 µM): 92%
- residual activity ([24]; compound 1.0 µM): 88%
- residual activity ([25]; compound 1.0 µM): 87%
- residual activity ([25]; compound 10.0 µM): 85%
- residual activity ([26]; compound 1.0 µM): 74%
- residual activity ([26]; compound 10.0 µM): 53%
- residual activity ([27]; compound 1.0 µM): 117%
- residual activity ([27]; compound 10.0 µM): 111%
- residual activity ([28]; compound 1.0 µM): 93%
- residual activity ([28]; compound 10.0 µM): 87%
- residual activity ([29]; compound 1.0 µM): 90%
- residual activity ([29]; compound 10.0 µM): 89%
- residual activity ([30]; compound 1.0 µM): 83%
- residual activity ([30]; compound 10.0 µM): 40%
- residual activity ([31]; compound 1.0 µM): 96%
- residual activity ([31]; compound 10.0 µM): 94%
- residual activity ([32]; compound 1.0 µM): 92%
- residual activity ([32]; compound 10.0 µM): 95%
- residual activity ([33]; compound 1.0 µM): 97%
- residual activity ([33]; compound 10.0 µM): 86%
- residual activity ([34]; compound 1.0 µM): 86%
- residual activity ([34]; compound 10.0 µM): 87%
Structure (SMILES): CC(C)(C#N)c1ccc(N2C(=O)OCc3cnc4ccc(-c5cnc6ccccc6c5)cc4c32)cc1
- residual activity ([18]; compound 1.0 µM): 73%
- residual activity ([18]; compound 10.0 µM): 67%

- residual activity ([1]; compound 1.0 µM): 112%
- residual activity ([1]; compound 5.0 µM): 120%
- residual activity ([2]; compound 1.0 µM): 107%
- residual activity ([2]; compound 5.0 µM): 91%
- residual activity ([3]; compound 5.0 µM): 115%
- residual activity ([4]; compound 1.0 µM): 114%
- residual activity ([4]; compound 5.0 µM): 110%
- residual activity ([5]; compound 1.0 µM): 117%
- residual activity ([5]; compound 5.0 µM): 85%
- residual activity ([6]; compound 1.0 µM): 98%
- residual activity ([6]; compound 5.0 µM): 90%
- residual activity ([7]; compound 1.0 µM): 109%
- residual activity ([8]; compound 1.0 µM): 104%
- residual activity ([8]; compound 5.0 µM): 102%
- residual activity ([9]; compound 1.0 µM): 110%
- residual activity ([9]; compound 5.0 µM): 87%
- residual activity ([35]; compound 1.0 µM): 106%
- residual activity ([35]; compound 5.0 µM): 99%
- residual activity ([10]; compound 1.0 µM): 104%
- residual activity ([11]; compound 1.0 µM): 102%
- residual activity ([11]; compound 5.0 µM): 94%
- residual activity ([12]; compound 1.0 µM): 105%
- residual activity ([12]; compound 5.0 µM): 103%
- residual activity ([13]; compound 5.0 µM): 98%
- residual activity ([14]; compound 1.0 µM): 102%
- residual activity ([14]; compound 5.0 µM): 103%
- residual activity ([15]; compound 1.0 µM): 113%
- residual activity ([15]; compound 5.0 µM): 117%
- residual activity ([16]; compound 1.0 µM): 107%
- residual activity ([16]; compound 5.0 µM): 106%
- residual activity ([17]; compound 1.0 µM): 114%
- residual activity ([17]; compound 5.0 µM): 106%
- residual activity ([19]; compound 1.0 µM): 90%
- residual activity ([19]; compound 5.0 µM): 83%
- residual activity ([20]; compound 1.0 µM): 106%
- residual activity ([20]; compound 5.0 µM): 105%
- residual activity ([21]; compound 5.0 µM): 109%
- residual activity ([22]; compound 1.0 µM): 117%
- residual activity ([22]; compound 5.0 µM): 98%
- residual activity ([23]; compound 1.0 µM): 96%
- residual activity ([23]; compound 5.0 µM): 92%
- residual activity ([24]; compound 1.0 µM): 135%
- residual activity ([24]; compound 5.0 µM): 58%
- residual activity ([25]; compound 1.0 µM): 132%
- residual activity ([25]; compound 5.0 µM): 106%
- residual activity ([26]; compound 1.0 µM): 110%
- residual activity ([26]; compound 5.0 µM): 106%
- residual activity ([27]; compound 1.0 µM): 98%
- residual activity ([27]; compound 5.0 µM): 125%
- residual activity ([28]; compound 1.0 µM): 103%
- residual activity ([28]; compound 5.0 µM): 103%
- residual activity ([29]; compound 1.0 µM): 111%
- residual activity ([29]; compound 5.0 µM): 106%
- residual activity ([30]; compound 1.0 µM): 113%
- residual activity ([30]; compound 5.0 µM): 82%
- residual activity ([31]; compound 1.0 µM): 110%
- residual activity ([31]; compound 5.0 µM): 122%
- residual activity ([32]; compound 1.0 µM): 99%
- residual activity ([33]; compound 1.0 µM): 109%
- residual activity ([33]; compound 5.0 µM): 108%
Structure (SMILES): C=C1C(=O)OC2C1CC/C(C)=C/CCC1(C)OC21 (stereo not given)
- residual activity ([18]; compound 1.0 µM): 98%
- residual activity ([18]; compound 5.0 µM): 119%

From the kinase profiling compilation of Christmann-Franck et al. (2016)
